Laboratory results taken from ChEMBL document CHEMBL4251601 (Eur J Med Chem, 2018).
One block for each compound: values may come before it.

Experiments:
[1] = Unbound brain to plasma concentration ratio in CD-1 nude mouse at 100 mg/kg, po; format: ADME, organism-based; settings: read-out: K(p,uu,brain)
[2] = system: U-87 MG; experiment: Antiproliferative activity against human U87MG cells after 72 hrs by DAPI staining based assay; format: functional, cell-based, U-87MG ATCC
[3] = Unbound brain to plasma concentration ratio in mouse at 30 mg/kg, po; format: ADME, organism-based; settings: read-out: K(p,uu,brain)
[4] = Unbound brain to plasma concentration ratio in mouse at 1 mg/kg, iv after 5 mins; format: ADME, organism-based; settings: read-out: K(p,uu,brain)
[5] = Half life in Sprague-Dawley rat at 5 mg/kg, po administered as single dose by LC-MS/MS analysis; format: ADME, organism-based; settings: in vivo
[6] = (§1) AUC (0 to infinity) in Sprague-Dawley rat at 2 mg/kg, iv administered as single dose by LC-MS/MS analysis; format: ADME, organism-based; set-up: dose 2 mg/kg, route intravenous, time infinity; settings: Sprague-Dawley, in vivo
[7] = Half life in Sprague-Dawley rat at 2 mg/kg, iv administered as single dose by LC-MS/MS analysis; format: ADME, organism-based; settings: in vivo
[8] = Half life in CD-1 mouse liver microsomes at 10 uM preincubated for 5 mins followed by NADP addition by LC-MS/MS analysis; format: ADME, microsome
[9] = target: Cyclin-dependent kinase 4/cyclin D1 (Homo sapiens, UniProt P11802); experiment: Inhibition of CDK4/Cyclin-D1 (unknown origin) using histone-H1 as substrate after 90 mins by ADP-Glo assay; format: protein-complex assay
Chain of Cyclin-dependent kinase 4/cyclin D1 (P11802 whole entry): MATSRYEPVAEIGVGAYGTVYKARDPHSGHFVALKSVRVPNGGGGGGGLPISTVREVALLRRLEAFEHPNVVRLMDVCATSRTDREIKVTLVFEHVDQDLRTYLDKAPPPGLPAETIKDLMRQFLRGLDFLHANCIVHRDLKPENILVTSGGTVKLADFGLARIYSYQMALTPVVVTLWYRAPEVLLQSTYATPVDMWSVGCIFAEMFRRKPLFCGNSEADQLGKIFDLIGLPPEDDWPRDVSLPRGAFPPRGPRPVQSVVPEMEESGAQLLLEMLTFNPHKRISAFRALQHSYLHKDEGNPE
Chain of Cyclin-dependent kinase 4/cyclin D1 (P24385 whole entry, further chain): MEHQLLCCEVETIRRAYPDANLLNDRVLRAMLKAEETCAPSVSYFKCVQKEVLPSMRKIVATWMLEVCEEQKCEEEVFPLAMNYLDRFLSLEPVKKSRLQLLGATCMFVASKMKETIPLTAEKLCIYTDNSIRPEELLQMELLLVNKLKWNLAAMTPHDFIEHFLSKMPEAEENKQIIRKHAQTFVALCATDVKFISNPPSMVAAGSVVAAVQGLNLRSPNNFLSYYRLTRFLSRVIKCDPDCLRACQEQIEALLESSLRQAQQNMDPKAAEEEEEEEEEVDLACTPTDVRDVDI

[10] = AUC (0 to 24 hrs) in Sprague-Dawley rat at 5 mg/kg, po administered as single dose by LC-MS/MS analysis; format: ADME, organism-based; set-up: time < 24 hr, dose 5 mg/kg, route oral; settings: in vivo
[11] = Stability in CD-1 mouse liver microsomes assessed as parent compound remaining at 10 uM preincubated for 5 mins followed by NADP addition measured after 60 mins by LC-MS/MS analysis; format: ADME, microsome; settings: read-out: Stability
[12] = Cmax in Sprague-Dawley rat at 5 mg/kg, po administered as single dose by LC-MS/MS analysis; format: ADME, organism-based; set-up: dose 5 mg/kg, route oral; settings: in vivo
[13] = target: CDK6/cyclin D3 (Homo sapiens, UniProt Q00534); experiment: Inhibition of CDK6/Cyclin-D3 (unknown origin) using histoneH1 as substrate after 90 mins by ADP-Glo assay; format: protein-complex assay
Chain of CDK6/cyclin D3 (P30281 whole entry): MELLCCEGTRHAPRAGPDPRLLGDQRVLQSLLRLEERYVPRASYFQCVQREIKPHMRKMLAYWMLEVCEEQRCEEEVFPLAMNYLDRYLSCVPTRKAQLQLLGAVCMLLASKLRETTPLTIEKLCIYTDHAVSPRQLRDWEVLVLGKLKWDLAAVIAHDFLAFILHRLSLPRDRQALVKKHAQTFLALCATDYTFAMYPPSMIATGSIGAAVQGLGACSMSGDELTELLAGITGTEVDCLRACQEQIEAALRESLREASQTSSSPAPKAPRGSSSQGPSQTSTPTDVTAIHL
Chain of CDK6/cyclin D3 (Q00534 whole entry): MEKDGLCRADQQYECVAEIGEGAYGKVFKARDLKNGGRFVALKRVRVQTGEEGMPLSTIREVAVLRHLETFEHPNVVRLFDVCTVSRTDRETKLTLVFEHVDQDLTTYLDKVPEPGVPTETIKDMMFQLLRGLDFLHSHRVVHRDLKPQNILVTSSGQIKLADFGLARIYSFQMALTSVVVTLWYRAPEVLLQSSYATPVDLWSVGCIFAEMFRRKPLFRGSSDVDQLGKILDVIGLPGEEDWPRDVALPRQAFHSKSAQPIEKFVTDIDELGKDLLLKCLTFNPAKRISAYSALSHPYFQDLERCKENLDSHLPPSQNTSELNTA

[14] = (§2) Oral bioavailability in Sprague-Dawley rat at 5 mg/kg administered as single dose by LC-MS/MS analysis; format: ADME, organism-based; settings: Sprague-Dawley, in vivo
[15] = AUC (0 to 24 hrs) in Sprague-Dawley rat at 2 mg/kg, iv administered as single dose by LC-MS/MS analysis; format: ADME, organism-based; set-up: dose 2 mg/kg, time < 24 hr, route intravenous; settings: in vivo
[16] = Stability in CD-1 mouse liver microsomes assessed as parent compound remaining at 10 uM measured after 60 mins in absence of NADPH-regenerating system by LC-MS/MS analysis; format: ADME, microsome; settings: read-out: Stability
[17] = Intrinsic clearance in CD-1 mouse liver microsomes at 10 uM preincubated for 5 mins followed by NADP addition by LC-MS/MS analysis; format: ADME, microsome; settings: read-out: CLH
[18] = Clearance in Sprague-Dawley rat at 2 mg/kg, iv administered as single dose by LC-MS/MS analysis; format: ADME, organism-based; settings: in vivo
[19] = (§3) AUC (0 to infinity) in Sprague-Dawley rat at 5 mg/kg, po administered as single dose by LC-MS/MS analysis; format: ADME, organism-based; set-up: dose 5 mg/kg, route oral, time infinity; settings: Sprague-Dawley, in vivo
[20] = Volume of distribution at steady state in Sprague-Dawley rat at 2 mg/kg, iv administered as single dose by LC-MS/MS analysis; format: ADME, organism-based; settings: in vivo, read-out: Vdss
[21] = system: Rattus norvegicus; experiment: as §1; format: ADME, organism-based; set-up: dose 2 mg/kg, route intravenous, time infinity; settings: in vivo
[22] = system: Rattus norvegicus; experiment: as §2; format: ADME, organism-based; settings: in vivo
[23] = system: Rattus norvegicus; experiment: as §3; format: ADME, organism-based; set-up: dose 5 mg/kg, route oral, time infinity; settings: in vivo
[24] = species on record: Homo sapiens; experiment: Selectivity ratio of IC50 for CDK1/Cyclin-A2 (unknown origin) to IC50 for CDK6/Cyclin-D3 (unknown origin)

- Kp uu [1]: 0.12
SMILES: CN(C)C(=O)c1cc2cnc(Nc3ccc(N4CCNCC4)cn3)nc2n1C1CCCC1 [RIBOCICLIB]

- IC50 [2]: 48.1 nM
- Kp uu [3]: 0.03
SMILES: CCN1CCN(Cc2ccc(Nc3ncc(F)c(-c4cc(F)c5nc(C)n(C(C)C)c5c4)n3)nc2)CC1 [ABEMACICLIB]

- Kp uu at 5 min [4]: 0.01
SMILES: CC(=O)c1c(C)c2cnc(Nc3ccc(N4CCNCC4)cn3)nc2n(C2CCCC2)c1=O [PALBOCICLIB]

- half-life [5]: 3.6 h
- AUC(0-inf) [6]: 686 ng·h/mL
- half-life [7]: 4.6 h
- half-life at 10 µM [8]: 8.1 min
- IC50 [9]: 12 nM
- AUC(0-t) at 24 h [10]: 813 ng·h/mL
- remaining at 1 h, 10 µM [11]: 1%
- Cmax [12]: 77.1 ng/mL
- IC50 [13]: 2 nM
- bioavailability [14]: 48%
- AUC(0-t) at 24 h [15]: 670 ng·h/mL
- remaining at 1 h, 10 µM [16]: 81.1%
- microsomal CLint at 10 µM [17]: 171 µL/min/mg
- clearance [18]: 48.9 mL/min/kg
- AUC(0-inf) [19]: 827 ng·h/mL
- Vd [20]: 16.7 L/kg
SMILES: CCN1CCN(Cc2ccc(Nc3ncc(F)c(-c4cc(F)c5c(c4)C4(CCCC4)C(C)=N5)n3)nc2)CC1

- AUC [21]: 2000 ng·h/mL
- half-life [7]: 6.1 h
- AUC(0-t) at 24 h [10]: 1200 ng·h/mL
- Cmax [12]: 99.9 ng/mL
- F [22]: 25%
- AUC(0-t) at 24 h [15]: 1900 ng·h/mL
- clearance [18]: 16.9 mL/min/kg
- AUC [23]: 3651 ng·h/mL
- Vd [20]: 7.1 L/kg
- Ratio IC50 [24]: 18
SMILES: CCN1CCN(c2ccc(Nc3ncc(F)c(-c4ccc5c(c4)C4(CCCC4)C(C)=N5)n3)nc2)CC1
